Data on one compound can be found in publication PMC5520492, “Inhibition of DNA2 nuclease as a therapeutic strategy targeting replication stress in cancer cells” (Oncogenesis, 2017).

The target in assay [1] is T1, EXO1 (Homo sapiens, UniProt Q9UQ84).
T1 construct: made in house
T1 sequence (Q9UQ84 1-846): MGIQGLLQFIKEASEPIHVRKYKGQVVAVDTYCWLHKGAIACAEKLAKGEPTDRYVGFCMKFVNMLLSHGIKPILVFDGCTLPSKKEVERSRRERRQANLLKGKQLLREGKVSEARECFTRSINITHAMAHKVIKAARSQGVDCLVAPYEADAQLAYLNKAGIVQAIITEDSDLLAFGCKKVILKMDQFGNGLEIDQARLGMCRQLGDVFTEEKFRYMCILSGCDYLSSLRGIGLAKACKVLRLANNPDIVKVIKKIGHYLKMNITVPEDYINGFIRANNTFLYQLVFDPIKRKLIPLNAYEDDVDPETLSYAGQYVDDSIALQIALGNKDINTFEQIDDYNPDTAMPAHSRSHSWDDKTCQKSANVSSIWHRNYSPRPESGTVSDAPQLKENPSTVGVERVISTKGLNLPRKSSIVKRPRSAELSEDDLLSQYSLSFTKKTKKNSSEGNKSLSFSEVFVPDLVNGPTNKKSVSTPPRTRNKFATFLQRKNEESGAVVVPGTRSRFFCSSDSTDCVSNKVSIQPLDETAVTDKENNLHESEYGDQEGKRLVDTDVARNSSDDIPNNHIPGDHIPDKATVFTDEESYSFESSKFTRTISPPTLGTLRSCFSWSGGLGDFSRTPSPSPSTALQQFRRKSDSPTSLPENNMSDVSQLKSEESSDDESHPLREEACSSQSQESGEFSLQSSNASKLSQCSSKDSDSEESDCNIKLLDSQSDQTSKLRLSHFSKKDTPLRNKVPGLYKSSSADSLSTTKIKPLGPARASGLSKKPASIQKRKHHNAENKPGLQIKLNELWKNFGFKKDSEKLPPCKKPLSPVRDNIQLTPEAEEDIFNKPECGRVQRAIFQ
In words: EXO1 nuclease assay (2 kb dsDNA degradation). Type of assay: biochemical. The note with it: 10 µM; EXO1 5 nM. As to the method:
Nuclease assays were performed in buffer R (20 mM Na-HEPES pH 7.5, 1 mM ATP, 0.1 mM DTT, 100 μg/ml bovine serum albumin, 0.05% Triton X-100, 2 mM MgCl2, 100 mM KCl) and contained 0.5 nM ends (2-kb substrate) or 5 nM ends (the ssDNA oligonucleotide PSOL6929) of DNA. Reactions containing Bloom syndrome also included an ATP regenerating system consisting of 10 mM creatine phosphate and 50 μg/ml creatine kinase. In control reactions, DMSO was used in place of the inhibitor. Reactions with DNA2 alone were incubated at 30 °C, and those with DNA2-Bloom syndrome-Replication protein A and EXO1 were incubated at 37 °C for the indicated times. […] Gels were dried onto DEAE paper on top of Whatman filter paper (GE, Issaquah, WA, USA) and then analyzed in a BioRad Personal Molecular Imager FX phosphorimager. Band intensity was quantified using Image Lab software (Bio-Rad, Hercules, CA, USA). The fraction of DNA substrate digested was determined by measuring the amount of substrate remaining and normalizing to the total substrate in the negative control lane containing no protein.
Figure S2. […] (b) Plots showing quantitation of the experiments shown in a. […] (d) Plots showing quantitation of the experiments shown in c. […] (f) Plot showing quantitation of the experiment in e. […]

The subject of assay [2] is U2OS cells. In words: Cell cycle distribution (BrdU, flow cytometry). The note with it: highest tested concentration 0.6 μM, 24 h; slight decrease of G1, increase of G2. The class given is cell-based, human. As to the method: Apoptosis was measured by flow cytometry using the Annexin V FITC assay kit based on the protocol from the manufacturer (Invitrogen). For BrdU (bromodeoxyuridine (5-bromo-2′-deoxyuridine)) analysis, after treatments, cells were labeled with BrdU (Sigma) for 30 min before fixation with 70% cold ethanol (−20 °C). The next day, cells were washed with cold phosphate-buffered saline and incubated with 2 M HCl for 5 min at room temperature. After adjusting the pH with 0.1 M sodium borate (pH 8.5), cells were incubated in 1% bovine serum albumin with 0.1% Triton X-100 for 30 min and mouse anti-BrdU antibody (1:400) for 1 h to detect BrdU labeling. After washing, cells were incubated with secondary antibody (fluorescein isothiocyanate 1:400) for 30 min. […] For fluorescence-activated cell sorting analysis, the percentage of cells with positive BrdU staining in each phase of the cell cycle was quantitated with the CellQuest software and ModFit software (Verity Software House Inc., Topsham, ME, USA).
Figure S7: Cell cycle distribution of U2OS cells upon treatment with NSC-105808. (a) U2OS cells were treated with DMSO or the indicated concentration of NSC-105808 for 24 hrs followed by a pulse of BrdU (10 µM) for 30 minutes and then analyzed by flow cytometry. […] (c) Quantitation of the G1 cell population. […]

Molecules are shown by their SMILES.

Regarding `NC1=C(Br)C(=O)c2ncccc2C1=O` [NSC-105808, 6-amino-7-bromoquinoline-5,8-dione], the “Effect on nuclease activity of EXO1” value in assay [1] is “does not inhibit”. In addition, in assay [2], the “Impact on cell cycle distribution” value is recorded as “only a mild impact”.
